System: DU-145
Test: MTT cytotoxicity assay, DU-145
Assay type: cell-based, human
Conditions: DU-145, 24 h drug exposure, mean ± SD
Source text: (§1) In this investigation, two experimental groups of cancer cell lines were employed: human prostate carcinoma cells lacking prostate-specific membrane antigen (PSMA) and androgen receptor independence (DU-145 and HTB-81™), alongside human prostate carcinoma cells (PC-3 and CRL-1435™). The control group comprised non-cancerous human fibroblasts (MRC-5 and CCL-171™). All cell lines utilized in this study were procured from the American Type Culture Collection (ATCC, Manassas, VA, United States). The cells were maintained in a complete medium containing high-glucose DMEM, supplemented with 10% fetal bovine serum and 200 mM L-glutamine (reagents sourced from Sigma-Aldrich, St. Louis, MO, United States). Cultivation of the cells was conducted in 25 cm^2 flasks (Thermo Fisher Scientific, Waltham, MA, United States) at 37°C under conditions of absolute humidity and a 5% CO2 atmosphere. The cytotoxic effects of three newly synthesized Pd(II) complexes were assessed on DU-145, PC-3, and MRC-5 cell lines using the MTT assay. For comparison, the cytotoxicity of cisplatin, a clinically established chemotherapeutic agent, was also evaluated across all cell lines. Cells were harvested during their exponential growth phase, counted, and seeded at a density of 5 × 10^3 cells per well in 96-well culture plates. […] The treated cells were incubated under identical conditions (37°C, 5% CO2, absolute humidity) for durations of 24, 48, and 72 h. After incubation, the medium was removed, and an MTT solution was added to each well. The cells were then incubated for an additional 2 h to facilitate the reduction of thiazolyl blue tetrazolium bromide in the MTT solution. Subsequently, the MTT solution was carefully removed, and the resulting formazan crystals were solubilized in DMSO. […] All experiments were performed in triplicate and repeated across three independent runs. Cell viability was calculated as a percentage by dividing the absorbance of treated cells (minus blank absorbance) by the average absorbance of untreated control cells (minus blank absorbance) and multiplying by 100. % of the viable cells=absorbance of treated cell−absorbance of blank / absorbance of untreated cell−absorbance of blank * 100 […] This analysis was performed using Microsoft Office Excel 2010, leveraging its curve-fitting capabilities to determine precise inhibitory concentrations.

Row | SMILES | IC50
1 | N.N.[Cl][Pt][Cl] [CP, cisplatin, reference compound] | 22.3 ± 2.4 µM
2 | Oc1ccc(CN=Cc2ccccc2[O][Pd][O]c2ccccc2C=NCc2ccc(O)cc2)cc1 [Complex 2a] | 83.6 ± 9.2 µM
3 | Oc1ccc(CCN=Cc2ccccc2[O][Pd][O]c2ccccc2C=NCCc2ccc(O)cc2)cc1 [Complex 2b] | 75.9 ± 7.3 µM
4 | C(=NCCc1c[nH]c2ccccc12)c1ccccc1[O][Pd][O]c1ccccc1C=NCCc1c[nH]c2ccccc12 [Complex 2c] | 48.4 ± 5.1 µM

Same assay, conditions: DU-145, 48 h drug exposure, mean ± SD

Row | SMILES | IC50
5 | N.N.[Cl][Pt][Cl] [CP, cisplatin, reference compound] | 11.4 ± 1.1 µM
6 | Oc1ccc(CN=Cc2ccccc2[O][Pd][O]c2ccccc2C=NCc2ccc(O)cc2)cc1 [Complex 2a] | 17.5 ± 1.6 µM
7 | Oc1ccc(CCN=Cc2ccccc2[O][Pd][O]c2ccccc2C=NCCc2ccc(O)cc2)cc1 [Complex 2b] | 19.2 ± 2.1 µM
8 | C(=NCCc1c[nH]c2ccccc12)c1ccccc1[O][Pd][O]c1ccccc1C=NCCc1c[nH]c2ccccc12 [Complex 2c] | 11 ± 1.2 µM

Same assay, conditions: DU-145, 72 h drug exposure, mean ± SD

Row | SMILES | IC50
9 | N.N.[Cl][Pt][Cl] [CP, cisplatin, reference compound] | 8.2 ± 0.8 µM
10 | Oc1ccc(CN=Cc2ccccc2[O][Pd][O]c2ccccc2C=NCc2ccc(O)cc2)cc1 [Complex 2a] | 9.3 ± 0.9 µM
11 | Oc1ccc(CCN=Cc2ccccc2[O][Pd][O]c2ccccc2C=NCCc2ccc(O)cc2)cc1 [Complex 2b] | 8.7 ± 0.8 µM
12 | C(=NCCc1c[nH]c2ccccc12)c1ccccc1[O][Pd][O]c1ccccc1C=NCCc1c[nH]c2ccccc12 [Complex 2c] | 7.1 ± 0.8 µM

System: not listed separately
Test: Stability in DMSO by UV-Vis spectra
Assay type: physicochemical
Conditions: UV-Vis 200–600 nm after t = 0, 24, and 48 h
Protocol: UV-Vis spectra were recorded in DMSO as a solvent, at room temperature, and the data of the absorption wavelength maxima (λ max) are given in Table 3 and Figure 3. […] Further, two more bands are attributed to the ligand 1b, the medium intensity π → π* and very weak and broad n→π* transition of the imine group. Upon coordination, the π → π* band of the imine group decreases in intensity, while the new band at 393 nm, attributed to Ligand-to-Metal Charge Transfer (LMCT), appears ([Felicio et al., 2001]; [Hussain et al., 2019]). The stability of Schiff base metal complexes is a key factor influencing their performance during biological evaluations. Unstable complexes, prone to hydrolysis or degradation, may lead to reduced efficacy, altered mechanisms of action, or false-positive/negative outcomes. Palladium (II), typically adopting a square-planar geometry ([Kostić et al., 2003]), forms stable complexes with bidentate Schiff base ligands, but its coordination environment can be sensitive to ligand exchange. […] In order to determine the stability of selected complex 2b in DMSO, a series of UV-Vis spectra in the range of 200–600 nm were recorded after t = 0, 24, and 48 h (Supplementary Figure SI17) ([Marjanović et al., 2023]).

Row | SMILES | stability in DMSO
13 | Oc1ccc(CCN=Cc2ccccc2[O][Pd][O]c2ccccc2C=NCCc2ccc(O)cc2)cc1 [Complex 2b] | retaining its structural integrity without signs of ligand displacement or decomposition

System: DU-145 cells
Test: Mitochondrial membrane potential by JC-10 staining
Assay type: cell-based, human
Conditions: DU-145, IC50 of complex, 48 h
Protocol: JC-10 gathers in the mitochondria of living cells, forming red fluorescence aggregates. On the other hand, JC-10 is also present in a monomeric cytosolic form and dyes cells green in necrotic and apoptotic cells. Mitochondrial membrane potential was assessed using the dye JC-10. DU-145 cells were seeded at a density of 2 × 10^4 cells per well in 24-well cell culture plates and incubated in complete DMEM medium at 37°C with 5% CO2 for 24 h. […] The cells were treated for 20 min with 2.5 μM JC-10 dye in warm PBS. JC-10 accumulation in cells was evaluated using a Gramma Libero FLUO500T trinocular inverted fluorescence microscope. We used the 525/590 nm fluorescence emission ratio for our quantification analysis. We captured images using the 2020 S-EYE Setup Microscope camera and the S-EYE_Setup-1.6.0.11 software. The ImageJ program was used to analyse the images.

Row | SMILES | increase of JC-10 green/JC-10 red ratio compared to untreated cells
14 | Oc1ccc(CN=Cc2ccccc2[O][Pd][O]c2ccccc2C=NCc2ccc(O)cc2)cc1 [Complex 2a] | 2.1 fold
15 | Oc1ccc(CCN=Cc2ccccc2[O][Pd][O]c2ccccc2C=NCCc2ccc(O)cc2)cc1 [Complex 2b] | 2.9 fold
16 | C(=NCCc1c[nH]c2ccccc12)c1ccccc1[O][Pd][O]c1ccccc1C=NCCc1c[nH]c2ccccc12 [Complex 2c] | 3.2 fold

System: not listed separately
Test: Stability assay in PBS by UV-Vis spectra
Assay type: physicochemical
Conditions: ∼10^–5 M, less than 0.7% DMSO, UV-Vis after 0, 24 and 48 h
Protocol: The complex used for the testing was dissolved in the minimal amount of DMSO (dimethylsulfoxide) possible and diluted with PBS of ∼10^–5 M in concentration and less than 0.7% DMSO. UV-Vis spectra were recorded after 0, 24 and 48 h in the range 200–600 nm. Absorption spectra were recorded on UV–Vis Perkin–Elmer Lambda 35 spectrophotometer equipped with water thermostated cell.

Row | SMILES | stability in solution (PBS)
17 | Oc1ccc(CCN=Cc2ccccc2[O][Pd][O]c2ccccc2C=NCCc2ccc(O)cc2)cc1 [Complex 2b] | sufficient stability in solution under physiologically relevant conditions

System: DU-145 cells
Test: Clonogenic assay
Assay type: cell-based, human
Conditions: DU-145, four concentrations, 2 weeks colony formation
Protocol: In this assay ([Franken et al., 2006]), cells are seeded at low densities and incubated for 2 weeks to allow colony formation, with colonies defined as clusters of ≥50 cells. Treated and untreated cells are compared to assess survival fractions (SF), calculated by normalizing the plating efficiency (PE) of treated cells to that of controls. Colonies are fixed with 6% glutaraldehyde, stained with 0.5% crystal violet, and colonies were quantified using ImageJ software version 1.54 with a standardized macro. Images were first converted to 8-bit grayscale, and background noise was reduced using the “Subtract Background” function. Thresholding was applied to isolate colonies, and the “Analyze Particles” tool was used to count colonies based on defined size and circularity parameters. Only colonies with an area corresponding to ≥50 cells and a circularity range of 0.3–1.0 were included. Overlapping or merged colonies were excluded unless distinct borders were visually discernible. All image processing steps were applied consistently across samples to ensure reproducibility. Data are represented as dose-response survival curves.
Plating efficiency is calculated by the following formula: PE=Number of colonies/Number of cells seeded×100%
Survival fraction is calculated when all plating efficiencies are calculated according to the formula: SF=PEtreated/PEcontrol

Row | SMILES | long-term antiproliferative effect (survival fraction)
18 | C(=NCCc1c[nH]c2ccccc12)c1ccccc1[O][Pd][O]c1ccccc1C=NCCc1c[nH]c2ccccc12 [Complex 2c] | most pronounced effect

System: CT-DNA
Test: DNA viscosity measurement
Assay type: binding, calf
Conditions: 0.01 mM DNA in PBS, [2c]/[DNA] 0.1-1
Protocol: All chemicals were used without purification, and all of them are commercially available. ^1H NMR and ^13C NMR spectra were recorded in DMSO-d6 as a solvent with a Bruker Ascend 400 (400 MHz) spectrometer. Chemical shifts are given in parts per million (δ) down from tetramethylsilane as the internal standard. For elemental analyses (C, H, O, N) were used Elementar Vario MICRO elemental analyzer. IR spectra were obtained on Perkin Elmer FT-IR spectrometer, two equipped with a DTGS detector. Mass spectra were recorded at 6546 LC/Q-TOF (Agilent, Santa Clara, CA, SAD) equipped with Jet Stream ion source and connected with 1,290 Infinity II HPLC (Agilent, Santa Clara, CA, AD). Data were collected every second in the mass area 100–1,000 Da. Molar conductance of the Pd(II) complexes was measured on freshly prepared 10^–3 M solutions in DMSO at room temperature using Crison EC-Meter basic 30+conductivity cell. The viscosity of the DNA solution was measured in the absence and presence of increasing amounts of 2c. To the 0.01 mM DNA solution in PBS, a corresponding ratio of examinated compound was added at ratio [2c]/[DNA]: 0.1; 0.2; 0.3; 0.4; 0.5; 0.6; 0.7; 0.8; 0.9 and 1. Data are presented as a plot of (η/η0)1/3 vs. ratio of [2c]/[DNA], where η is the DNA viscosity in the presence of the compound, η0 is the viscosity of DNA in buffer alone.

Row | SMILES | DNA binding mode from viscosity
19 | C(=NCCc1c[nH]c2ccccc12)c1ccccc1[O][Pd][O]c1ccccc1C=NCCc1c[nH]c2ccccc12 [Complex 2c] | intercalates very weakly

System: MRC-5
Test: MTT cytotoxicity assay, MRC-5 fibroblasts
Assay type: cell-based, human
Conditions: MRC-5, 24 h drug exposure, mean ± SD
Source text: as §1

Row | SMILES | IC50
20 | N.N.[Cl][Pt][Cl] [CP, cisplatin, reference compound] | 90.1 ± 9.2 µM
21 | Oc1ccc(CN=Cc2ccccc2[O][Pd][O]c2ccccc2C=NCc2ccc(O)cc2)cc1 [Complex 2a] | 94.3 ± 9.7 µM
22 | Oc1ccc(CCN=Cc2ccccc2[O][Pd][O]c2ccccc2C=NCCc2ccc(O)cc2)cc1 [Complex 2b] | 87.7 ± 8.8 µM
23 | C(=NCCc1c[nH]c2ccccc12)c1ccccc1[O][Pd][O]c1ccccc1C=NCCc1c[nH]c2ccccc12 [Complex 2c] | 80.7 ± 8.1 µM

Same assay, conditions: MRC-5, 48 h drug exposure, mean ± SD

Row | SMILES | IC50
24 | N.N.[Cl][Pt][Cl] [CP, cisplatin, reference compound] | 41.9 ± 4.4 µM
25 | Oc1ccc(CN=Cc2ccccc2[O][Pd][O]c2ccccc2C=NCc2ccc(O)cc2)cc1 [Complex 2a] | 92.4 ± 9.1 µM
26 | Oc1ccc(CCN=Cc2ccccc2[O][Pd][O]c2ccccc2C=NCCc2ccc(O)cc2)cc1 [Complex 2b] | 78.5 ± 7.7 µM
27 | C(=NCCc1c[nH]c2ccccc12)c1ccccc1[O][Pd][O]c1ccccc1C=NCCc1c[nH]c2ccccc12 [Complex 2c] | 75.6 ± 7.7 µM

Same assay, conditions: MRC-5, 72 h drug exposure, mean ± SD

Row | SMILES | IC50
28 | N.N.[Cl][Pt][Cl] [CP, cisplatin, reference compound] | 24.4 ± 0.8 µM
29 | Oc1ccc(CN=Cc2ccccc2[O][Pd][O]c2ccccc2C=NCc2ccc(O)cc2)cc1 [Complex 2a] | 83 ± 8.1 µM
30 | Oc1ccc(CCN=Cc2ccccc2[O][Pd][O]c2ccccc2C=NCCc2ccc(O)cc2)cc1 [Complex 2b] | 49.2 ± 5.1 µM
31 | C(=NCCc1c[nH]c2ccccc12)c1ccccc1[O][Pd][O]c1ccccc1C=NCCc1c[nH]c2ccccc12 [Complex 2c] | 42.3 ± 4.1 µM

System: PC-3
Test: MTT cytotoxicity assay, PC-3
Assay type: cell-based, human
Conditions: PC-3, 24 h drug exposure, mean ± SD
Source text: as §1

Row | SMILES | IC50
32 | Oc1ccc(CN=Cc2ccccc2[O][Pd][O]c2ccccc2C=NCc2ccc(O)cc2)cc1 [Complex 2a] | 94.1 ± 9.1 µM
33 | Oc1ccc(CCN=Cc2ccccc2[O][Pd][O]c2ccccc2C=NCCc2ccc(O)cc2)cc1 [Complex 2b] | 75.2 ± 7.2 µM
34 | C(=NCCc1c[nH]c2ccccc12)c1ccccc1[O][Pd][O]c1ccccc1C=NCCc1c[nH]c2ccccc12 [Complex 2c] | 38.4 ± 3.6 µM

Same assay, conditions: PC-3, 48 h drug exposure, mean ± SD

Row | SMILES | IC50
35 | N.N.[Cl][Pt][Cl] [CP, cisplatin, reference compound] | 29.7 ± 3.1 µM
36 | Oc1ccc(CN=Cc2ccccc2[O][Pd][O]c2ccccc2C=NCc2ccc(O)cc2)cc1 [Complex 2a] | 89.8 ± 8.8 µM
37 | Oc1ccc(CCN=Cc2ccccc2[O][Pd][O]c2ccccc2C=NCCc2ccc(O)cc2)cc1 [Complex 2b] | 58.6 ± 5.6 µM
38 | C(=NCCc1c[nH]c2ccccc12)c1ccccc1[O][Pd][O]c1ccccc1C=NCCc1c[nH]c2ccccc12 [Complex 2c] | 12.5 ± 1.1 µM

Same assay, conditions: PC-3, 72 h drug exposure, mean ± SD

Row | SMILES | IC50
39 | N.N.[Cl][Pt][Cl] [CP, cisplatin, reference compound] | 21.9 ± 2.2 µM
40 | Oc1ccc(CN=Cc2ccccc2[O][Pd][O]c2ccccc2C=NCc2ccc(O)cc2)cc1 [Complex 2a] | 79.3 ± 7.7 µM
41 | Oc1ccc(CCN=Cc2ccccc2[O][Pd][O]c2ccccc2C=NCCc2ccc(O)cc2)cc1 [Complex 2b] | 29.1 ± 2.8 µM
42 | C(=NCCc1c[nH]c2ccccc12)c1ccccc1[O][Pd][O]c1ccccc1C=NCCc1c[nH]c2ccccc12 [Complex 2c] | 8.6 ± 0.9 µM
